Test results reported in patent US9416163B2, “Synthetic oligopeptides designed from mite cysteine proteases and methods for the production of polyclonal IgY antibodies for the detection of intradomiciliary mites” (priority 2009, dated 2016).

What follows are sequences tested on Hi Line Brown chickens (assay: Immunogenicity of synthetic peptide in immunized chickens (IgY production)). Conditions: chickens immunized intramuscularly with peptide in Freund's adjuvant; IgY from egg yolk.
Format: in vivo, chicken
Source text: An experimental avian model was used in the experiments, represented by Hi Line Brown chickens, immunized with peptide 2, using complete Freund's adjuvant during the first immunization and incomplete Freund's adjuvant for the three subsequent immunizations, as described in the immunization protocol used. As a positive control, chickens were immunized with BSA, and as a negative control they were not immunized. Antibodies were extracted from egg yolk using an organic solvent and purified by thiophilic chromatography. Indirect ELISA tests were developed to measure the antibody titer and its specificity was determined by indirect ELISA. (25-26)
Experiments used an avian experimental model, represented by Hi Line Brown chickens, immunized with peptide 2, using complete Freund's adjuvant for the first immunization and incomplete Freund's adjuvant for the three subsequent immunizations described in the immunization protocol used. As a positive control, chickens were immunized with BSA, and as a negative control they were not immunized. Antibodies were extracted from egg yolk using an organic solvent and purified by thiophilic chromatography. Indirect ELISA tests were developed to measure the antibody titer and its specificity was determined by indirect ELISA. (25-26)
(§1) Experiments used an avian experimental model, represented by Hi Line Brown chickens, immunized with peptide 4, using complete Freund's adjuvant for the first immunization and incomplete Freund's adjuvant for the three subsequent immunizations described in the immunization protocol used. […] Indirect ELISA tests were developed to measure the antibody titer and its specificity was determined by indirect ELISA. […]
as §1, with “5,” for “4,”, “ELISA (FIG. 14)” for “ELISA.”

Row | Sequence | Immunogenicity: induction of IgY antibodies recognizing native mite proteins
1 | IPANFDWRQKTHVNPIRNQG [Peptide P05] | induces the production of IgY-anti P05 antibody that recognizes epitopes B and/or T in native proteins of intradomiciliary Dp and Bt mites
2 | PIRMQGGCGSCWAFSGV [Peptide P02] | induces the production of IgY anti P06 antibodies that recognize B and/or T epitopes in native proteins of intradomiciliary Df, Dp and Bt mite species
3 | TNACSINGNAPAEIDLRQMR [Peptide P01] | induces the production of IgY anti P04 antibodies that recognize B and/or T epitopes in native proteins of intradomiciliary Df and Bt mite species
